Experimental data as given in patent publication US6951843B2, “Peptide derivatives and their pharmaceutically acceptable salts, thereof, processes for preparation of both and use thereof” (priority 2000, dated 2005).
Read-outs that look alike come from different tables or passages of the source.

Legend:
Arg-gingipain (RGP) = assay: Inhibitory activity against Arg-gingipain (RGP), substrate Z-Phe-Arg-MCA, for comparison; assay type: biochemical, Porphyromonas gingivalis; conditions: compound concentration 10^−6 mol/l
Procedure: Enzyme inhibitory activity (%)=[1−(F/F0)]×100
The inhibitory activity against Arg-gingipain (hereinafter referred to as “RGP”) was measured for comparison in a manner similar to the above, by the process described in Journal Biological Chemistry, Vol. 269, 21371-21378 (1994) using Z-Phe-Arg-MCA as a substrate.

Lys-gingipain (KGP) = Lys-gingipain (KGP) (Porphyromonas gingivalis, UniProt B2RLK2)
Procedure: Measurement of Inhibitory Activity Against KGP
The inhibitory activity against Lys-gingipain (KGP) was measured by the method described in Journal Biochemistry, Vol. 123, 305-312 (1998), using Z-His-Glu-Lys-MCA as a substrate. Specifically, the measurement was carried out in the following manner: 100 μl of 50 mM L-cystein, 200 μl of a 0.1 M sodium phosphate buffer solution (pH 7.5), 20 μl of 12.3 nM KGP solution containing 0.05% “Brij35” (a tradename of Aldrich, polyoxyethylene(23) lauryl ether), 80 μl of distilled water and 100 μl of a dimethyl sulfoxide solution of a compound according to the invention were mixed together, and preincubated at 37° C. for 5 minutes. Thereafter, 500 μl of a 0.1% dimethyl sulfoxide solution containing 20 μM Z-His-Glu-Lys-MCA was added, followed by incubation at 40° C. for 10 minutes. Then, an acetic acid buffer solution (pH 5.0) containing 10 mM iodoacetamide was added to stop the enzyme reaction, and the fluorescence intensity (F) at 460 nm excited at 380 nm was measured. […] The enzyme inhibitory activity (%) was calculated by the following equation. Enzyme inhibitory activity (%)=[1−(F/F0)]×100

[1] = compound concentration 10^−6 mol/l
[2] = compound concentration 10^−9 mol/l

COC(=O)C(O)[C@H](CCCCNC(=O)OC(C)(C)C)NC(=O)[C@H](CCC(=O)OC(C)(C)C)NC(=O)OCc1ccccc1 (stereo partly drawn)
melting point: 101 to 103 °C

CC(C)(C)OC(=O)CC[C@H](NC(=O)OCc1ccccc1)C(=O)N[C@@H](CCCCNC(=O)OC(C)(C)C)C(O)C(=O)NCCc1ccccc1 (stereo partly drawn)
melting point: 82 to 85 °C

CC(C)(C)OC(=O)NCCCC[C@H](NC(=O)[C@H](CCC(N)=O)NC(=O)OCc1ccccc1)C(O)C(=O)NCc1ccccc1 (stereo partly drawn)
melting point: 138 to 141 °C

CNC(=O)CC[C@H](NC(=O)OCc1ccccc1)C(=O)N[C@@H](CCCCNC(=O)OC(C)(C)C)C(O)C(=O)NCc1ccccc1 (stereo partly drawn)
melting point: 147 to 149 °C

CC(C)(C)OC(=O)NCCCC[C@H](NC(=O)[C@H](CCC(=O)NCCNC(=O)OC(C)(C)C)NC(=O)OCc1ccccc1)C(O)C(=O)NCc1ccccc1 (stereo partly drawn)
melting point: 170 to 172 °C

CN(C)NC(=O)CC[C@H](NC(=O)OCc1ccccc1)C(=O)N[C@@H](CCCCNC(=O)OC(C)(C)C)C(O)C(=O)NCc1ccccc1 (stereo partly drawn)
melting point: 123 to 125 °C

CN(NC(=O)CC[C@H](NC(=O)OCc1ccccc1)C(=O)N[C@@H](CCCCNC(=O)OC(C)(C)C)C(O)C(=O)NCc1ccccc1)c1ccccc1 (stereo partly drawn)
melting point: 170 to 173 °C

CN(C)C(=O)[C@H](Cc1ccccc1)NC(=O)C(=O)[C@H](CCCCNC(=O)OC(C)(C)C)NC(=O)[C@H](CCC(=O)OC(C)(C)C)NC(=O)OCc1ccccc1
melting point: 102 to 104 °C

CC(C)C[C@H](NC(=O)C(=O)[C@H](CCCCNC(=O)OC(C)(C)C)NC(=O)[C@H](CCC(=O)OC(C)(C)C)NC(=O)OCc1ccccc1)C(=O)N(C)C
melting point: 119 to 122 °C

CC(C)(C)OC(=O)CC[C@H](NC(=O)OCc1ccccc1)C(=O)N[C@@H](CCCCNC(=O)OC(C)(C)C)C(O)C(=O)O (stereo partly drawn)
melting point: 48 to 50 °C

CN(C)C(=O)[C@H](CCC(=O)OC(C)(C)C)NC(=O)C(=O)[C@H](CCCCNC(=O)OC(C)(C)C)NC(=O)[C@H](CCC(=O)OC(C)(C)C)NC(=O)OCc1ccccc1
melting point: 127 to 130 °C

CN(C)C(=O)[C@H](CC(N)=O)NC(=O)C(=O)[C@H](CCCCNC(=O)OC(C)(C)C)NC(=O)[C@H](CCC(=O)OC(C)(C)C)NC(=O)OCc1ccccc1
melting point: 122 to 124 °C

CN(C)C(=O)[C@H](CCCCNC(=O)OC(C)(C)C)NC(=O)C(=O)[C@H](CCCCNC(=O)OC(C)(C)C)NC(=O)[C@H](CCC(=O)OC(C)(C)C)NC(=O)OCc1ccccc1
melting point: 152 to 155 °C

CCCNC(=O)C(=O)[C@H](CCCCNC(=O)OC(C)(C)C)NC(=O)[C@H](CCC(=O)OC(C)(C)C)NC(=O)OCc1ccccc1
melting point: 131 to 133 °C

CC(C)(C)OC(=O)CC[C@H](NC(=O)OCc1ccccc1)C(=O)N[C@@H](CCCCNC(=O)OC(C)(C)C)C(=O)C(=O)NCc1ccccc1
melting point: 130 to 132 °C

CC(C)(C)OC(=O)CC[C@H](NC(=O)OCc1ccccc1)C(=O)N[C@@H](CCCCNC(=O)OC(C)(C)C)C(=O)C(=O)NCCc1ccccc1
melting point: 148 to 150 °C

CC(C)(C)OC(=O)NCCCC[C@H](NC(=O)[C@H](CCC(N)=O)NC(=O)OCc1ccccc1)C(=O)C(=O)NCc1ccccc1
melting point: 193 to 195 °C

CNC(=O)CC[C@H](NC(=O)OCc1ccccc1)C(=O)N[C@@H](CCCCNC(=O)OC(C)(C)C)C(=O)C(=O)NCc1ccccc1
melting point: 189 to 192 °C

CC(C)(C)OC(=O)NCCCC[C@H](NC(=O)[C@H](CCC(=O)NCCNC(=O)OC(C)(C)C)NC(=O)OCc1ccccc1)C(=O)C(=O)NCc1ccccc1
melting point: 157 to 159 °C

CN(NC(=O)CC[C@H](NC(=O)OCc1ccccc1)C(=O)N[C@@H](CCCCNC(=O)OC(C)(C)C)C(=O)C(=O)NCc1ccccc1)c1ccccc1
melting point: 147 to 150 °C

CN(C)C(=O)[C@H](CC(N)=O)NC(=O)C(O)[C@H](CCCCNC(=O)OC(C)(C)C)NC(=O)[C@H](CCC(=O)OC(C)(C)C)NC(=O)OCc1ccccc1 (stereo partly drawn)
melting point: 88 to 91 °C

CCCNC(=O)C(O)[C@H](CCCCNC(=O)OC(C)(C)C)NC(=O)[C@H](CCC(=O)OC(C)(C)C)NC(=O)OCc1ccccc1 (stereo partly drawn)
melting point: 73 to 75 °C

CN(C)C(=O)[C@H](Cc1ccccc1)NC(=O)C(O)[C@H](CCCCNC(=O)OC(C)(C)C)NC(=O)[C@H](CCC(=O)OC(C)(C)C)NC(=O)OCc1ccccc1 (single isomer, unassigned)
melting point: 132 to 134 °C

CC(C)(C)OC(=O)CC[C@H](NC(=O)OCc1ccccc1)C(=O)N[C@@H](CCCCNC(=O)OC(C)(C)C)C(O)C(=O)Nc1ccccc1 (single isomer, unassigned)
melting point: 146 to 147 °C

CN(C)C(=O)[C@H](Cc1ccccc1)NC(=O)C(=O)[C@H](CCCCN)NC(=O)[C@H](CCC(=O)O)NC(=O)OCc1ccccc1.Cl [Example 34]
Enzyme inhibitory activity (%) RGP (Arg-gingipain (RGP)): 5.7%
Enzyme inhibitory activity (%) KGP (Lys-gingipain (KGP); [1]): 99.7%
Enzyme inhibitory activity (%) KGP (Lys-gingipain (KGP); [2]): 40.6%

CC(C)C[C@H](NC(=O)C(=O)[C@H](CCCCN)NC(=O)[C@H](CCC(=O)O)NC(=O)OCc1ccccc1)C(=O)N(C)C.Cl [Example 35]
Enzyme inhibitory activity (%) RGP (Arg-gingipain (RGP)): 3.7%
Enzyme inhibitory activity (%) KGP (Lys-gingipain (KGP); [1]): 99.9%
Enzyme inhibitory activity (%) KGP (Lys-gingipain (KGP); [2]): 50.6%

CN(C)C(=O)[C@H](CCC(=O)O)NC(=O)C(=O)[C@H](CCCCN)NC(=O)[C@H](CCC(=O)O)NC(=O)OCc1ccccc1.Cl [Example 36]
Enzyme inhibitory activity (%) RGP (Arg-gingipain (RGP)): 0.0%
Enzyme inhibitory activity (%) KGP (Lys-gingipain (KGP); [1]): 98.6%
Enzyme inhibitory activity (%) KGP (Lys-gingipain (KGP); [2]): 38.4%

CN(C)C(=O)[C@H](CC(N)=O)NC(=O)C(=O)[C@H](CCCCN)NC(=O)[C@H](CCC(=O)O)NC(=O)OCc1ccccc1.Cl [Example 37]
Enzyme inhibitory activity (%) RGP (Arg-gingipain (RGP)): 8.5%
Enzyme inhibitory activity (%) KGP (Lys-gingipain (KGP); [1]): 99.9%
Enzyme inhibitory activity (%) KGP (Lys-gingipain (KGP); [2]): 59.6%

CCCNC(=O)C(=O)[C@H](CCCCN)NC(=O)[C@H](CCC(=O)O)NC(=O)OCc1ccccc1.Cl [Example 39]
Enzyme inhibitory activity (%) RGP (Arg-gingipain (RGP)): 0.0%
Enzyme inhibitory activity (%) KGP (Lys-gingipain (KGP); [1]): 99.6%
Enzyme inhibitory activity (%) KGP (Lys-gingipain (KGP); [2]): 71.9%

Cl.NCCCC[C@H](NC(=O)[C@H](CCC(=O)O)NC(=O)OCc1ccccc1)C(=O)C(=O)Nc1ccccc1 [Example 40]
Enzyme inhibitory activity (%) RGP (Arg-gingipain (RGP)): 0.0%
Enzyme inhibitory activity (%) KGP (Lys-gingipain (KGP); [1]): 99.6%
Enzyme inhibitory activity (%) KGP (Lys-gingipain (KGP); [2]): 71.3%

Cl.NCCCC[C@H](NC(=O)[C@H](CCC(=O)O)NC(=O)OCc1ccccc1)C(=O)C(=O)NCc1ccccc1 [Example 41]
Enzyme inhibitory activity (%) RGP (Arg-gingipain (RGP)): 4.0%
Enzyme inhibitory activity (%) KGP (Lys-gingipain (KGP); [1]): 99.7%
Enzyme inhibitory activity (%) KGP (Lys-gingipain (KGP); [2]): 81.8%

Cl.NCCCC[C@H](NC(=O)[C@H](CCC(=O)O)NC(=O)OCc1ccccc1)C(=O)C(=O)NCCc1ccccc1 [Example 42]
Enzyme inhibitory activity (%) RGP (Arg-gingipain (RGP)): 7.7%
Enzyme inhibitory activity (%) KGP (Lys-gingipain (KGP); [1]): 98.0%
Enzyme inhibitory activity (%) KGP (Lys-gingipain (KGP); [2]): 67.0%

Cl.NCCCC[C@H](NC(=O)[C@H](CCC(N)=O)NC(=O)OCc1ccccc1)C(=O)C(=O)NCc1ccccc1 [Example 43]
Enzyme inhibitory activity (%) RGP (Arg-gingipain (RGP)): 9.0%
Enzyme inhibitory activity (%) KGP (Lys-gingipain (KGP); [1]): 100.0%
Enzyme inhibitory activity (%) KGP (Lys-gingipain (KGP); [2]): 93.8%

CNC(=O)CC[C@H](NC(=O)OCc1ccccc1)C(=O)N[C@@H](CCCCN)C(=O)C(=O)NCc1ccccc1.Cl [Example 44]
Enzyme inhibitory activity (%) RGP (Arg-gingipain (RGP)): 1.9%
Enzyme inhibitory activity (%) KGP (Lys-gingipain (KGP); [1]): 100.0%
Enzyme inhibitory activity (%) KGP (Lys-gingipain (KGP); [2]): 97.3%

CN(C)C(=O)CC[C@H](NC(=O)OCc1ccccc1)C(=O)N[C@@H](CCCCN)C(=O)C(=O)NCc1ccccc1.Cl [Example 45]
Enzyme inhibitory activity (%) RGP (Arg-gingipain (RGP)): 0.0%
Enzyme inhibitory activity (%) KGP (Lys-gingipain (KGP); [1]): 100.0%
Enzyme inhibitory activity (%) KGP (Lys-gingipain (KGP); [2]): 93.7%

Cl.Cl.NCCCC[C@H](NC(=O)[C@H](CCC(=O)NCCN)NC(=O)OCc1ccccc1)C(=O)C(=O)NCc1ccccc1 [Example 46]
Enzyme inhibitory activity (%) RGP (Arg-gingipain (RGP)): 0.5%
Enzyme inhibitory activity (%) KGP (Lys-gingipain (KGP); [1]): 99.9%
Enzyme inhibitory activity (%) KGP (Lys-gingipain (KGP); [2]): 99.9%

Cl.Cl.NCCCC[C@H](NC(=O)[C@H](CCC(=O)N1CCNCC1)NC(=O)OCc1ccccc1)C(=O)C(=O)NCc1ccccc1 [Example 47]
Enzyme inhibitory activity (%) RGP (Arg-gingipain (RGP)): 6.4%
Enzyme inhibitory activity (%) KGP (Lys-gingipain (KGP); [1]): 100.0%
Enzyme inhibitory activity (%) KGP (Lys-gingipain (KGP); [2]): 98.5%

CN(C)NC(=O)CC[C@H](NC(=O)OCc1ccccc1)C(=O)N[C@@H](CCCCN)C(=O)C(=O)NCc1ccccc1.Cl.Cl [Example 48]
Enzyme inhibitory activity (%) RGP (Arg-gingipain (RGP)): 4.1%
Enzyme inhibitory activity (%) KGP (Lys-gingipain (KGP); [1]): 100.0%
Enzyme inhibitory activity (%) KGP (Lys-gingipain (KGP); [2]): 98.2%
